For data set [1] the following is noted: clinical studies; cited from earlier work.
For a further data set, the system named is ERK. The data set can be described thus: Immunoblot of phospho-ERK in HL-1 cardiomyocytes (normoxia or simulated ischemia + 10 min reoxygenation). The format is cell-based, murine. The note with it: for phospho-ERK expression with co-administration of PD98059: 5 μM PD98059, control, abaloparatide- and PTHrP-treated groups. The protocol: (§1) At 24 h after the onset of treatment, cells underwent 2 h of SI+10 min reoxygenation, while additional time- and treatment-matched normoxic cultures served as controls (n=3 independent replicates per group). At 10 min post-reoxygenation, cells were harvested and lysed in RIPA buffer containing 2 protease and phosphatase inhibitors. The lysates were centrifuged at 14,000×g for 15 min, and the resultant supernatant was collected and probed for the expression of ERK (total and phosphorylated: antibodies from Cell Signaling Technology Inc., Danvers, MA, USA), PI3 kinase/Akt (total and phosphorylated: Cell Signaling Technology Inc., Danvers, MA, USA) and GAPDH (Sigma Aldrich Inc., St. Louis, MO, USA) using standard methods Immunoreactive bands were identified by incubation with horseradish peroxidase (HRP)-conjugated secondary antibody, visualized using x-ray film, and quantified using the NIH ImageJ software. […] At 24 h after the onset of treatment, cells underwent either 2 h of SI+24 h reoxygenation or a time-matched period of normoxia (n=2 independent replicates per group). At 24 h following relief of SI, cell viability was quantified using the MTT assay as described in Example 1.
HL-1 cardiomyocytes were treated as described in Example 5, but were harvested at 10 minutes post-reoxygenation, lysed, and probed for phospho- and total ERK expression as detailed in Example 5.

In data set [2] the test system is HL-1 cardiomyocytes. The note with it: doxorubicin 2.5 μM for 24 hours; previously shown; cited from earlier work.
For data set [3] the following is noted: human, in vivo, sc; cited from earlier work.
For data set [4] the following is noted: Obaidi et al. 2010; cited from earlier work.
In data set [5] the test system is HL-1 cardiomyocytes. The data set can be described thus: HL-1 cardiomyocyte viability (MTT assay) under normoxia or simulated ischemia-reperfusion. The format is cell-based, murine. As to the method: HL-1 cardiomyocytes were grown to ˜80% confluence in 95% room air/5% CO2 at 37° C. in Claycomb medium supplemented with fetal bovine serum (10%), L-glutamine (2 mM), norepinephrine (0.1 mM), penicillin (100 U/mL) and streptomycin (100 μg/mL). The cardiomyocytes were then incubated for 24 hours with abaloparatide (0.1 nM, 1.0 nM, 10 nM, 100 nM) or vehicle control. At 24 hours after the onset of incubation, the cells were subjected to 2 hours of simulated ischemia (achieved by depletion of oxygen and nutrients), followed by 24 hours of reoxygenation. During simulated ischemia, Claycomb medium containing drug/placebo was replaced with drug-free hypoxia buffer at pH 6.6 (composed of NaCl ([…]), KCl (8 mM), KH2PO4 (1.2 mM), 1.25 mM MgSO4 (1.25 mM), CaCl2 (1.2 mM), NaHCO3 (6.25 mM), HEPES (20 mM), glucose (5.5 mM), 2-deoxy-D-glucose (20 mM), sodium lactate (5 mM): all ingredients from Sigma Aldrich, St. Louis, MO, USA) and the culture plates were sealed in a hermetic chamber with GasPak EZ Gas Generating Sachets (BD Biosciences, San Jose, CA, USA). Reoxygenation was achieved by removing the plates from the sealed chamber and exchanging the hypoxia buffer with serum-free Claycomb medium. Additional time- and treatment-matched normoxic cultures served as controls (n=4 independent replicates per group). Cell viability was quantified using the 3-(4,5-dimethythiazol-2-yl)-2,5-diphenyl tetrazolium bromide (MTT) assay.
At 24 hours after the onset of incubation, the cells were subjected to 2 hours of simulated ischemia (achieved by depletion of oxygen and nutrients), followed by 24 hours of reoxygenation. Additional time- and treatment-matched normoxic cultures served as controls. Cell viability was quantified using the 3-(4,5-dimethythiazol-2-yl)-2,5-diphenyl tetrazolium bromide (MTT) assay.
as §1
Twenty-four hours after the onset of treatment, cells underwent 2 hours of simulated ischemia followed by 24 hours of reoxygenation. Additional time- and treatment-matched normoxic cultures served as controls. Cell viability was quantified using the MTT assay.

The next data set deals with Akt. The data set can be described thus: Immunoblot of phospho-Akt in HL-1 cardiomyocytes (normoxia or simulated ischemia + 10 min reoxygenation). The data set is classed as cell-based, murine. The note with it: 2 h simulated ischemia + 10 min reoxygenation; 10 nM; vs vehicle; Example 3, FIG. 3B. As to the method: as §1
Setting [6] is: simulated ischemia + 10 min reoxygenation, Example 6, FIG. 6B.

Entries after “also recorded” stand apart in the source; their conditions may differ.

Consider `CC[C@H](C)[C@H](NC(=O)[C@H](CCC(=O)O)NC(=O)[C@H](CO)NC(=O)[C@@H](NC(=O)[C@@H](N)CO)C(C)C)C(=O)N[C@@H](CCC(N)=O)C(=O)N[C@@H](CC(C)C)C(=O)N[C@@H](CCSC)C(=O)N[C@@H](Cc1cnc[nH]1)C(=O)N[C@@H](CC(N)=O)C(=O)N[C@@H](CC(C)C)C(=O)NCC(=O)N[C@@H](CCCCN)C(=O)N[C@@H](Cc1cnc[nH]1)C(=O)N[C@@H](CC(C)C)C(=O)N[C@@H](CC(N)=O)C(=O)N[C@@H](CO)C(=O)N[C@@H](CCSC)C(=O)N[C@@H](CCC(=O)O)C(=O)N[C@@H](CCCN=C(N)N)C(=O)N[C@H](C(=O)N[C@@H](CCC(=O)O)C(=O)N[C@@H](Cc1c[nH]c2ccccc12)C(=O)N[C@@H](CC(C)C)C(=O)N[C@@H](CCCN=C(N)N)C(=O)N[C@@H](CCCCN)C(=O)N[C@@H](CCCCN)C(=O)N[C@@H](CC(C)C)C(=O)N[C@@H](CCC(N)=O)C(=O)N[C@@H](CC(=O)O)C(=O)N[C@H](C(=O)N[C@@H](Cc1cnc[nH]1)C(=O)N[C@@H](CC(N)=O)C(=O)N[C@@H](Cc1ccccc1)C(=O)O)C(C)C)C(C)C` [teriparatide], for which, in data set [1], the orthostatic hypotension entry was “transient episodes of symptomatic orthostatic hypotension”, the palpitations result is “palpitations” and the tachycardia result was “tachycardia”.
For the compound `COc1cccc(-c2cc(=O)c3ccccc3o2)c1N` [PD98059], the “phospho-ERK expression with co-administration of PD98059” value with ERK (setting [6]) is reported as “attenuated”.
As to `COc1cccc2c1C(=O)c1c(O)c3c(c(O)c1C2=O)C[C@@](O)(C(=O)CO)C[C@@H]3O[C@H]1C[C@H](N)[C@H](O)[C@H](C)O1` [doxorubicin], the HL-1 cardiomyocytes killed with HL-1 cardiomyocytes [2] is reported as ~50%.
As to abaloparatide, the “expression of phospho-ERK (normalized to total ERK)” value with ERK (2 h simulated ischemia + 10 min reoxygenation, 10 nM, vs vehicle, Example 3, FIG. 3C) was “augmented expression of phospho-ERK”. Further, the “expression of phospho-ERK vs vehicle-controls” value in the data set with ERK (simulated ischemia + 10 min reoxygenation, 10 nM, Example 6, FIG. 6B) is “augmented expression phospho-ERK”. Moreover, the “phospho-ERK expression with co-administration of PD98059” value with ERK (setting [6]) is “attenuated”. In data set [3], the heart rate entry is “modest and transient increases in heart rate”; the “heart rate relative to placebo” value is “transient increases in heart rate”; the “incidence of palpitations relative to placebo” value is “higher incidences of palpitations”; the supine blood pressure entry is “decreases in supine blood pressure”. Moreover, in data set [4], the anabolic activity result was “potent anabolic activity”, the bone resorption result is given as “decreased bone resorption” and the calcium-mobilizing potential entry is “less calcium-mobilizing potential”. In the data set on HL-1 cardiomyocytes [5] (2 h simulated ischemia + 24 h reoxygenation, 10 nM, Example 5, FIG. 5B), the “HL-1 cell viability vs vehicle-controls” value is listed as “viability was better maintained”. In the data set with HL-1 cardiomyocytes [5] (2 h simulated ischemia + 24 h reoxygenation, 10 and 100 nM, Example 4, FIG. 4B), the “HL-1 cell viability vs vehicle-controls” value is “viability was better-maintained”. Moreover, the “HL-1 cell viability vs vehicle control” value with HL-1 cardiomyocytes [5] (2 h simulated ischemia + 24 h reoxygenation, abaloparatide 0.1-100 nM, 24 h pre-incubation, Example 1, FIG. 1B) is listed as “viability was better-maintained”. Besides, the “efficacy of abaloparatide relative to PTHrP(1-36)” value in the data set on HL-1 cardiomyocytes [5] (in vitro model of ischemia-reperfusion injury, summary statement) is “slightly but significantly greater than that of PTHrP(1-36)”. In addition, the “viability of HL-1 cardiomyocyte cells” value with HL-1 cardiomyocytes [5] (in vitro model of lethal ischemia-reperfusion injury, summary statement) is reported as “enhancement in viability”. The HL-1 cell viability entry with HL-1 cardiomyocytes [5] (normoxic conditions, abaloparatide 0.1-100 nM, 24 h incubation, Example 1, FIG. 1A) is reported as “no effect on HL-1 cell viability”. In the data set with HL-1 cardiomyocytes [5] (simulated ischemia-reperfusion, 10 nM peptide + 5 μM PD98059, Example 5, FIG. 5B), the “protective effect on viability with co-administration of PD98059” value is “attenuated by co-administration of PD98059; also recorded: attenuated the protective effect”. Besides, the “viability with 10 nM abaloparatide compared with other groups” value with HL-1 cardiomyocytes [5] (simulated ischemia-reperfusion, p<0.05 between groups, Example 4, FIG. 4B) is “greater than that achieved with 100 nM abaloparatide and 10 nM PTHrP(1-36)”. Besides, in the data set on HL-1 cardiomyocytes [5] (simulated ischemia-reperfusion, tested 0.1, 1.0, 10, 100 nM, Example 1, FIG. 1B), the “concentration with greatest efficacy on viability” value is on record as 10 nM. Moreover, in the data set with HL-1 cardiomyocytes [5] (summary statement on Examples 1-3), the “HL-1 cardiomyocyte death caused by simulated ischemia-reperfusion” value was “attenuated HL-1 cardiomyocyte death”. Moreover, the “expression of phospho-Akt (normalized to GAPDH)” value with Akt is given as “better preservation of phospho-Akt”.

Source of the values: patent US20240139290A1, “METHODS OF TREATING A CARDIOVASCULAR ISCHEMIC EVENT” (Radius Health, Inc., priority 2021, published 2024).
